“Also recorded” adds a separate entry of the source.
Experiments:
ARPE-19 cells [1] = assay: Complement mediated cell death assay on RPE cells in the context of oxidative stress (cell protection assay, NIH clinical collection library screen); format: cell-based; settings: for protection against cell death mediated by complement attack and oxidative stress: versus vehicle (DMSO)
Protocol: ARPE-19 cells were plated at sub confluence in 96 well culture plates and cultured 24 to 48 hrs. The cells were then treated with 1:1000 dilution of each compound from the NIH clinical collection library overnight. The following day culture media was collected and set aside. The cells were washed and then treated with 0.77 mM H2O2 in hanks buffered saline solution (HBSS) for 90 minutes in the presence of fresh compound from NIH clinical collection library at a 1:1000 dilution. Cells were then washed and primed with a solution of HBSS containing 24% S-58 for 30 minutes. After the priming step cells were washed and then treated with 6% C1q deficient human serum in the original cell culture supernatant collected prior to H2O2 treatment. 90 minutes after addition of the human serum cells were labeled with the membrane impermeant nuclear dye SYTOX® orange and the number of positive cells determined. This count was then used to determine level of cell death. Quantitation and imaging were accomplished by capturing a single field per objective using a 10× objective and then counting the number of positive nuclei using metamorph image analysis software. Data was collected and expressed as % protection relative to wells containing vehicle alone (DMSO).
Data was collected and the level of protection by each compound determined by averaging the results of two independent experiments. FIG. 4 is the distribution of results indexed to compound plate (y-axis) and Protection (x-axis). […] FIG. 5 contains a list of compounds with protective properties. Of the 17 compounds selected, six compounds (Zeranol, Penciclovir, Rifapentine, Rifaximin, calcitrol, 3-[3,5-DIBROMO-4-HYDROXYBENZOYL]-2-ETHYLBENZOFURAN) were deemed to function as anti-oxidants in the assay. Of the remaining 11 compounds, four fall into a single class associated with modulation of the arachidonic acid pathway. This included Zileuton, Zafirlukast, Montelukast, and Loxoprofen. […] The targeting was both direct at 5-lipoxygenase (Zileuton) and indirect at the leukotiene receptor (Zafirlukast, Montelukast).
The observation that inhibition of 5-lipoxygenase is protective against the combined effects of oxidative stress and complement attack in ARPE-19 cells prompted us to test the 5 lipoxygenase activating protein inhibitor MK886 for its ability to protect ARPE-19 cells from oxidative stress and complement attack in vitro. The cell protection assay was carried out essentially as described in Examples 1-4.
In addition to the MK886 inhibitor we also evaluated other know 5-lipoxygenase inhibitors, including 2-TEDC and monocyclin, for their ability to protect ARPE-19 cells against oxidative stress and complement attack, using the cell protection assay described in Examples 1-4.

5-lipoxygenase = biological target: T1, 5-lipoxygenase (Homo sapiens, UniProt P09917); settings: read-out: known I.C.50 inhibition of 5-lipoxygenase; Cho et al., J Med Chem 1991; cited from earlier work
T1 sequence (P09917 1-674): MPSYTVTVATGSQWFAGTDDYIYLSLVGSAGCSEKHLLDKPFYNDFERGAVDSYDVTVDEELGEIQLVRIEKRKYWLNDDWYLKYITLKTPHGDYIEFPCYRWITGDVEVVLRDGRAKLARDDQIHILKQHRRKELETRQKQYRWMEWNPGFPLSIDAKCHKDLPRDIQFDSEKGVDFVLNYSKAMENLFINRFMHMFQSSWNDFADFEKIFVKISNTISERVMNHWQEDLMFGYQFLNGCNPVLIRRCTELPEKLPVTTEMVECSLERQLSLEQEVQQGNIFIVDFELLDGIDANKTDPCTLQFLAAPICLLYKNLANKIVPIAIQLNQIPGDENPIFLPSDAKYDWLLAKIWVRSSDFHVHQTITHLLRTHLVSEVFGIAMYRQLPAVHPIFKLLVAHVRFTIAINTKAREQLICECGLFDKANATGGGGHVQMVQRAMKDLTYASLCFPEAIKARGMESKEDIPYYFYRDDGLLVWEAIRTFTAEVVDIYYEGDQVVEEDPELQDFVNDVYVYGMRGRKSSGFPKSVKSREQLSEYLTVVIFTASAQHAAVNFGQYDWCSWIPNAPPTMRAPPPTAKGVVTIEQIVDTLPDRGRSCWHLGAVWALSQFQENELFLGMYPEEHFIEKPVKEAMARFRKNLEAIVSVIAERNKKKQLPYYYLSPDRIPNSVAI

ARPE-19 cells [2] = assay: Oxidative stress followed by challenge with complement, cell death; format: cell-based; settings: then challenge with complement
Excerpt: Oxidative stress and complement activation are the two most highly cited factors associated with occurrence and progression of AMD. To examine functional consequences of this relationship we treated ARPE-19 cells with either H2O2 or t-BH followed by challenge with complement. […] FACS analysis of ARPE-19 after treatment with t-Bh or H2O2 indicated minimal impact in expression levels (FIG. 3B).

Balb/c mice [3] = assay: Blue light induced retinal damage, outer nuclear layer histology scoring; format: in vivo; settings: 1 mg/Kg PO BID 14 days; blue light 4800 lux 8 hours
Protocol: Balb/c mice were dosed orally (PO) at 1 mg/Kg starting 16 hours prior to blue light, and then BID for the next 14 days. Control animal received an equivalent volume of vehicle (0.5% Avicel R-91 and 0.1% Tween-80 in dH2O) to compound treated animals.
Animals were first dark adapted for 16 hours prior to blue light. Animals were then exposed to blue light at 4800 lux for 8 hours. Animals were then moved to normal housing conditions.
Eyes were immersion fixed over night at room temperature in Davidson's Fix special (BBC Biochemical, Mt Vernon, Wash.), dehydrated for 1 hr in 50% EtOH at room temperature, and then placed into 70% EtOH at room temperature. Eyes were stored in 70% EtOH until subjected to automated paraffin processing. After processing, eyes were embedded in paraffin, sectioned on a rotary microtome at 5 μm thickness through the optic nerve head parallel to the vertical meridian, and mounted on glass slides. Sections were baked onto slides, subjected to automated H&E staining, and coverslipped using permanent mounting medium. Stained tissue sections were then examined by an observed blinded to treatment regiments and scored to determine the level of damage to the outer nuclear layer.

Balb/c mice [4] = assay: Blue light induced retinal damage, ERG; format: in vivo; settings: 1 mg/Kg PO BID 14 days; ERG 2 weeks post blue light; p<0.05
Excerpt: To further explore the protective effects of inhibition of the 5-lipoxygenase pathway, we examined the ability of 5-lipoxygenase inhibition in two in vivo models. The first in vivo model was a model of retinal oxidative stress induced by intravitreal injection of Paraquat in SOD1−/+ animals (Dong, A., et al., Superoxide dismutase 1 protects retinal cells from oxidative damage. J Cell Physiol, 2006. 208(3): p. 516-26). In addition to elevation of oxidative stress Paraquat is also known to induce activation of complement (Sun, S., et al. (2011 Mar. 18) “Complement Inhibition Alleviates Paraquat-Induced Acute Lung Injury” Am J Respir Cell Mol Biol. EPub), allowing us to examine effects of oxidative stress and complement activation in vivo similar to that observed in the in vitro RPE assay, above. The second in vivo model in which we examined the effects of 5-lipoxygenase inhibition was a rodent light induced retinal degeneration model. […]
The ERG was performed 2 weeks post blue light (4 days post OCT to allow for cataracts to clear). […] The ERG was then recorded with the animal on a heating pad (takes 7-8 minutes). Animals were revived by administration of 0.5 mg/kg atipamezole (injected i.p.), returned to their cages, and warmed using a heating pad and monitored until awake.

Q: Which results are given for `N#C/C(=C\c1ccc(O)c(O)c1)C(=O)OCCc1cccs1` [2-TEDC]?
A: IC50 (ARPE-19 cells [1]; Homo sapiens, FIG. 7, read-out: I.C.50 of blocking cell death within the assay system): 100 nM; activity at the known I.C. 50 for 12 lipoxygenase (ARPE-19 cells [1]; concentration = known I.C.50 for 12 lipoxygenase): little activity; protection at the known I.C.50 for 15 lox (ARPE-19 cells [1]; concentration = known I.C.50 for 15 lox): ~100%; protection against cell death mediated by complement attack and oxidative stress (ARPE-19 cells [1]): dose dependently protected; also recorded: dose dependent protection; IC50 (5-lipoxygenase): 90 nM

Q: Which “increase in cell death” value (ARPE-19 cells [2]) does the source give for `OO` [H2O2] here?
A: The value was over 10 fold.

Q: Which “increase in cell death” value (ARPE-19 cells [2]) does the source give for `CC(C)(C)OO` [t-BH] here?
A: Its value is 20-30%.

Q: With `c1ccc2c(c1)SCc1c-2[nH]c2ccccc12` [PD146176, 6,11-dihydro-[1]benzothiopyrano[4,3-b]indol] as the molecule, how does the “protection against cell death mediated by complement attack and oxidative stress” value (ARPE-19 cells [1]) read?
A: The value was “no protection; also recorded: no protective activity”.

Q: With `CC(C)c1ccc2c(c1)c(SC(C)(C)C)c(CC(C)(C)C(=O)[O-])n2Cc1ccc(Cl)cc1.[Na+]` [MK886, 1-[(4-chlorophenyl)methyl]-3-[(1,1-dimethylethyl)thio]-α,α-dimethyl-5-(1-methylethyl)-1H-indole-2-propanoic acid, sodium salt] as the molecule, how does the “protection against cell death mediated by complement attack and oxidative stress” value (ARPE-19 cells [1]; sodium salt) read?
A: Its value is “dose dependently protected; also recorded: protects; also recorded: effectively blocked cell death in a dose dependent manner”.

Q: For `Cn1nccc1-c1ccc(Sc2cccc(C3(C(N)=O)CCOCC3)c2)cc1` [PF-4191834, 4-(3-(4-(1-Methyl-1H-pyrazol-5-yl)phenylthio)phenyl)-tetrahydro-2H-pyran-4-carboxamide], which “retinal structure / outer nuclear layer thickness” value (Balb/c mice [3]) is on record?
A: Its value is “protected retinal structure and preserved photoreceptors”.

Q: And the “protection against loss of retinal ERG A-wave amplitude” value (Balb/c mice [4])?
A: Its value is “protected against the loss of ERG A-wave amplitude; also recorded: protected against functional loss”.
